Test results published in US20030157107A1, “Agents for preventing or ameliorating insulin resistance and/or obesity” (priority 2000, published 2003).
No end group written: not given here.

What was measured:
glucagon-receptor = target: T1, glucagon-receptor (Homo sapiens, UniProt P47871); experiment: Inhibition of glucagon-stimulated cAMP production in CHO cells expressing glucagon-receptor; assay type: cell-based; details: CHO cells expressing glucagon-receptor stimulated by 100 pM glucagon, read-out: inhibitory rate on the action of glucagon (cAMP production)
T1 construct: expressed in transfected cells; host or cells: CHO cells
Description: (§1) Screening of low molecular GIP function inhibitors was performed in accordance with the Example 1 of the screening method. Specifically, the GIP-receptor expressing CHO cells were stimulated with 100 pM GIP in the presence and absence of the test compound, and the amount of produced cAMP was measured to determine the GIP function inhibitory activity of the test compound. In addition, in order to confirm the receptor specificity of the test compound, the CHO cells expressing receptors of GLP-1 and glucagon which belong to glucagon-secretin family like GIP were stimulated with GLP-1 and glucagon (100 pM), respectively, and the inhibitory activity of the test compound on production of CAMP was determined. Moreover, in order to determine other effects which are unrelated to these receptors, the CHO cells without introducing any of these receptor genes were stimulated with 5 μM forskolin, and the inhibitory effect of the test compound on production of cAMP was determined. As for positive control, 500 nM GIP (7-30)-NH2 (tGIP) was used. [drawing 1]

GIP-receptor = target: T2, GIP-receptor (Homo sapiens, UniProt P48546); experiment: Inhibition of GIP-stimulated cAMP production in GIP-receptor expressing CHO cells; assay type: cell-based; details: CHO cells expressing GIP-receptor stimulated by 100 pM GIP; read-out: EC50 of inhibition of the cAMP production inducing effect of GIP
T2 construct: expressed in transfected cells; host or cells: CHO cells
T2 sequence (P48546 22-466): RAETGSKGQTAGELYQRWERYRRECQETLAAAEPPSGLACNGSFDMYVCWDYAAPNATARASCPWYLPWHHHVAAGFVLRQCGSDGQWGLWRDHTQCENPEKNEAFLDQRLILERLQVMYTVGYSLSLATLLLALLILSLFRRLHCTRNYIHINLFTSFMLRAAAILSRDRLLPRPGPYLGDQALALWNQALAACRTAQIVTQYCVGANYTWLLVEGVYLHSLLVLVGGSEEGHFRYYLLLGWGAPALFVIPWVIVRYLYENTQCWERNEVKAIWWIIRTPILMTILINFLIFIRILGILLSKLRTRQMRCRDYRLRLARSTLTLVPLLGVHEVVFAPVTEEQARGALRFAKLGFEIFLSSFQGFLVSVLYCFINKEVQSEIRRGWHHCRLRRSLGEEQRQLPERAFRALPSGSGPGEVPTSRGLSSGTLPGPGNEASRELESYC
Description: 1. A method for screening drugs by monitoring an inhibitory activity on the production of cAMP, an intracellular transmitter of GIP, which according to the method described by Kubota et al. (Diabetes, 45: 1701-1705, 1996), uses the human GIP-receptor expressing cells where […] is introduced into the CHO cells, and make cAMP produced by GIP in Krebs-Ringer buffer solution containing 1 mM isobutylmethylxanthine at 37° C. for 30 minutes in the presence of the drug. Then cAMP is extracted with 30% trichloroacetic acid, and radioimmunoassay is used to quantitate cAMP. Alternatively, Scintillation Proximity Assay (SPA) provided by Amersham Pharmacia Biotech Co., Inc. is used to quantitate cAMP.
Screening of low molecular GIP function inhibitors was performed in accordance with the Example 1 of the screening method. Specifically, the GIP-receptor expressing CHO cells were stimulated with 100 pM GIP in the presence and absence of the test compound, and the amount of produced cAMP was measured to determine the GIP function inhibitory activity of the test compound. […] Moreover, in order to determine other effects which are unrelated to these receptors, the CHO cells without introducing any of these receptor genes were stimulated with 5 μM forskolin, and the inhibitory effect of the test compound on production of cAMP was determined. […]

GLP-1-receptor = target: T3, GLP-1-receptor (Homo sapiens, UniProt P43220); experiment: Inhibition of GLP-1-stimulated cAMP production in CHO cells expressing GLP-1-receptor; assay type: cell-based; details: CHO cells expressing GLP-1-receptor stimulated by 100 pM GLP-1
T3 construct: expressed in transfected cells; host or cells: CHO cells
Description: as §1

[1] = tested on: CHO cells without transfer of receptor genes; experiment: Inhibition of forskolin-stimulated cAMP production in CHO cells without transfer of receptor genes; assay type: cell-based; details: 5 μM forskolin
Description: as §1

[2] = tested on: glucose absorption by the intestine; details: reported in WO98/24464; cited from earlier work
C57BL/6j mice = experiment: GIP administration and high fat diet loading test in normal mice; assay type: in vivo; details: high fat diet
Description: The animals used were 17-week-old male C57BL/6j mice. An osmotic pump was implanted under the skin of the back of each animal. Groups of animals each consisting of 5 mice were continuously given GIP 20, 60 or 200 μg/kg/hour or physiological saline as control, and also given either high fat diet or control normal diet. The energy composition of high fat diet was: lipid 45%, carbohydrate 38%, and protein 17%. The energy composition of control normal diet was: lipid 13%, carbohydrate 60%, and protein 27%. The energy contents of high fat and control normal diets were 4.77 and 3.57 kcal/g, respectively. GIP administration and high fat diet loading were continued for 4 weeks.
The body weights were measured weekly, and their changes were compared between the groups. The blood samples were collected under fasting 4 weeks after the start of the experiment to determine the blood glucose and insulin levels.

[3] = continuous GIP 20, 60 or 200 μg/kg/hour, after 4 weeks, vs same diet without GIP

T1 sequence (P47871 26-477, species assumed): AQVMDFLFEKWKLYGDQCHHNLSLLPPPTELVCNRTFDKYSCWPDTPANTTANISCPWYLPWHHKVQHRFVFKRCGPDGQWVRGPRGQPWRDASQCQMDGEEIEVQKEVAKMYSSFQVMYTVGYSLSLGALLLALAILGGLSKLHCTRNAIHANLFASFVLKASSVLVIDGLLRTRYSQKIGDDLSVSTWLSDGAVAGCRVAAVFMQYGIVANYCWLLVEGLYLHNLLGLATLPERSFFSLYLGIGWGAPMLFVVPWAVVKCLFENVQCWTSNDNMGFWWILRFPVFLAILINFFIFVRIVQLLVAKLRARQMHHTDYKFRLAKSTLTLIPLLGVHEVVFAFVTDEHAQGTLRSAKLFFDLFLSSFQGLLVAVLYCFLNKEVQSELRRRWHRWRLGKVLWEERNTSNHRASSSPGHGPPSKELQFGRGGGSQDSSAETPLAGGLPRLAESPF
T3 sequence (P43220 24-463, species assumed): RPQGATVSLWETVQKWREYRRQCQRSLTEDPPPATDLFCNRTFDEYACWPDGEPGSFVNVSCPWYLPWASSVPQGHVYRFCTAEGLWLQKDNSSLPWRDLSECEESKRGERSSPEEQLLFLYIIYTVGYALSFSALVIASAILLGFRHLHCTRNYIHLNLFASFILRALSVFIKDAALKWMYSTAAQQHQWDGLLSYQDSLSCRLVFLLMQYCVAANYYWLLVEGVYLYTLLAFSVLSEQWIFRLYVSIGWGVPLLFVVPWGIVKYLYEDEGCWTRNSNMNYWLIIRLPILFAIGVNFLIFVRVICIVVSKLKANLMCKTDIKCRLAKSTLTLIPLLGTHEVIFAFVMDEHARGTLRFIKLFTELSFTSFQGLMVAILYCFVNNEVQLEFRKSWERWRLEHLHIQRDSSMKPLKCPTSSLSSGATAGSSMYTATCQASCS

In the case of `Cc1cc(O)n2nc(-c3ccccc3)c(Br)c2n1` [BMPP, 3-bromo-5-methyl-2-phenylpyrazolo[1,5-a]pyrimidine-7-ol], the inhibition at 80 µM (glucagon-receptor) is reported as 27%, the EC50 (GIP-receptor) is reported as about 30 µM and the “inhibitory effect on GLP-1 action (cAMP production)” value (GLP-1-receptor) is reported as “almost no inhibitory effect”. The “inhibitory effect on cAMP production stimulated by forskolin” value [1] was “did not show any inhibitory effect”.

In the case of “GIP (7-30)-NH2: fragmented peptide of GIP, known GIP-receptor antagonist, used as positive control (ISDYSIAMDKIHQQDFVNWLLAQK-NH2; UniProt P09681 58-81, looked up, fragment)”, the “glucose absorption by the intestine” value [2] is given as “suppressed glucose absorption by the intestine”.

With “GIP: gastric inhibitory polypeptide or glucose-dependent insulinotropic peptide, a gastrointestinal hormone (YAEGTFISDYSIAMDKIHQQDFVNWLLAQKGKKNDWKHNITQ; Gastric inhibitory polypeptide; UniProt P09681 52-93, looked up)” the body weight gain (C57BL/6j mice; continuous GIP 20, 60 or 200 μg/kg/hour by osmotic pump, 4 weeks) was “No further increase in the body weight gain”, the “fasting blood glucose levels” value (C57BL/6j mice; [3]) was “increased depending on the dose of GIP” and the “fasting blood insulin levels” value (C57BL/6j mice; [3]) was “tended to increase depending on the dose of GIP”.
